The record followed here is EP4616854A1, “TREATMENT OF MUSCLE SARCOPENIA” (Molius Saglik Teknolojileri Anonim Sirketi, priority 2024, dated 2025).

Format in all cases: cell-based, mouse
The test system of test [1] is C2C12 myoblasts. Briefly: Differentiation of C2C12 myoblasts to myotubes under drug treatment, without ceramide. Conditions: for ability to facilitate myotube differentiation without the presence of ceramide: C2C12 cells not treated with C2-ceramide, Fig. 15. The method, then:
The C2C12 cells (C2C12 mouse C3H muscle myoblast purchased from Sigma) were maintained in modified Eagle's medium (DMEM) with 10 % fetal bovine serum (FBS) and 1 % penicillin/streptomycin (P/S) solution in a humidified incubator with 5 % CO2 at 37 °C. […] […] Then, the medium was changed twice, at two-day intervals, with a differentiation medium (DMEM with 2% FBS and 1% P/S) with drug candidates to differentiate myoblasts into myotubes. […] Cell viability was measured spectrophotometrically by Cell Counting kit-8. The expression level of target proteins (ANXA2, CLMP, Cyc1, and SDHB), myogenic markers (MyoG and MyH3) and α-Tubulin (internal control) were detected using Western blots. All experiments were performed with 3 replicates.

Test [2] deals with C2-ceramide treated C2C12 cell line. As to the kind of experiment: In vitro sarcopenia model (Example 1): myotube phenotype and MyH3 immunofluorescence. How it is done:
(§1) The C2C12 cells (C2C12 mouse C3H muscle myoblast purchased from Sigma) were maintained in modified Eagle's medium (DMEM) with 10 % fetal bovine serum (FBS) and 1 % penicillin/streptomycin (P/S) solution in a humidified incubator with 5 % CO2 at 37 °C. 40 µM C2-ceramide was used for developing an in vitro model of sarcopenia in the C2C12 cell line, i.e., in vitro sarcopenia model. One day after 300×10^3 cells were seeded per well in a 6-well plate, N-acetyl-D-sphingosine (C2-ceramide) and the drug candidates (dissolved in DMSO) were administered in the maintenance condition (DMEM with 10 % FBS and 1 % P/S) for two days. Then, the medium was changed twice, at two-day intervals, with a differentiation medium (DMEM with 2% FBS and 1% P/S) with drug candidates to differentiate myoblasts into myotubes. Furthermore, siRNAs for Anxa2 and Clmp and overexpression plasmids for Cyc1 and Sdhb were transfected into the cells to examine the effect of the target proteins on the in vitro sarcopenia model. Cell viability was measured spectrophotometrically by Cell Counting kit-8. The expression level of target proteins (ANXA2, CLMP, Cyc1, and SDHB), myogenic markers (MyoG and MyH3) and α-Tubulin (internal control) were detected using Western blots. All experiments were performed with 3 replicates.
The cells were, once again, washed 3 times in PBS and then permeabilized in 0.1 % TritonX-100 for 15 min at room temperature. The cells were then incubated for 1 h in 2 % bovine serum albumin (BSA) solution followed by overnight incubation in anti-Myosin/MyH3 diluted in 0.1 % BSA at 4 °C. Primary antibody solution was washed away with PBS, then incubated in fluorescent dye-labelled secondary antibody diluted in 0.1 % BSA for 45 min at room temperature protected from light. Finally, the samples were washed 3 times with 1xPBS-T and mounted with DAPI mount putted cover glass on the cells.
The cell brightness was measured by ImageJ software (NIH). For each experiment condition, three different areas were photographed with same area size (5038848 by ImageJ), the mean brightness of each image was obtained for statistical analysis. The t test was used to check the statistical differences between any two experiment conditions.

Test [3] has the same test system. Briefly: In vitro sarcopenia model (Example 1): Western blot of target proteins and myogenic markers. How it is done:
as §1
The cells were washed with PBS and lysed with CelLytic M (C2978, Sigma-Aldrich) lysis buffer containing protease inhibitors. The cell lysates were centrifuged at 12 000 rpm for 5 min and supernatants were collected. A protein assay solution (Bio-Rad) was used for the determination of protein concentration. The absorbance of the proteins was measured spectrophotometrically at 595 nm by microplate reader (Hidex Sense Beta Plus). Protein electrophoresis was performed using Mini-PROTEAN® TGXTM Precast Gels (Bio-Rad) and the separated proteins were transferred to a Trans-Blot Turbo Mini 0.2 um PVDF Transfer Packs membrane (Bio-Rad) by using Trans-Blot® TurboTM Transfer System (Bio-Rad). The membrane was blocked with 5 % skim milk for 30 min at 4 °C with gentle rocking. It was immunoblotted with primary antibodies against MyH3, MyoG, ANXA2, CLMP, Cyc1, and SDHB, as well as α-Tubulin, as an internal control, overnight at 4 °C with gentle rocking. Goat anti-Rabbit HRP or goat anti-mouse IgG-HRP was used as secondary antibody. Reaction with secondary antibody proceeded for 30 min at 4 °C with gentle rocking.
A general note: A western blot detects proteins with antibodies after separation by electrophoresis.

The mark [4] stands for this setting: selected non-toxic concentration of drug candidate, Fig. 11.
[5] abbreviates: 40 µM ceramide plus drug candidate at selected concentration.
[6] abbreviates: 5 µM, in vitro sarcopenia model.
Setting [7] is: drug plus ceramide (sarcopenic cells), concentration not given.
The mark [8] stands for this setting: 2.5 µM, in vitro sarcopenia model.
Setting [9] is: 20 µM, in vitro sarcopenia model.
The mark [10] stands for this setting: 40 µM ceramide alone versus control, 4 days of differentiation.

Structures are written as SMILES. Entries after “also recorded” stand apart in the source; their conditions may differ. Read-outs that look alike come from different tables or passages of the source.

As to `CCCCCCCCCC(=O)NC(CN1CCOCC1)C(O)c1ccccc1` (racemic) [DL-PDMP], in test [1] (setting [4]), the “differentiation of myoblasts to myotubes” value is “highly differentiated”. In addition, in test [2] (setting [5]), the “effect on myotubes (phenotypic change)” value is recorded as “Only treatment with withaferin-A improved the myotubes”.

Take `OCCCNc1cc(-c2ccnc(Nc3cccc(Cl)c3)n2)ccn1` [CGP-60474]: the “differentiation of myoblasts to myotubes” value in test [1] (setting [4]) was “highly differentiated”. For the same compound, the “effect on myotubes (phenotypic change)” value in test [2] (setting [5]) was “Only treatment with withaferin-A improved the myotubes”.

As to `Nc1[nH]nc2nnc(-c3c(-c4ccccc4)nn4ccccc34)cc12` [FR-180204], in test [1], the “ability to facilitate myotube differentiation without the presence of ceramide” value is listed as “exhibited the ability to facilitate myotube differentiation” and the “ability to improve the myotube fusion in healthy muscle myoblasts” value was “ability to improve the myotube fusion”. For the same compound, the “effect on myotubes (phenotypic change)” value in test [2] (setting [5]) was “promising effect in enhancing myotube cells”. For the same compound, in test [3] (setting [6]), the Cyc1 expression result is given as “significantly increased”, the MyH3 expression entry is reported as “significantly increased” and the MyoG expression result is given as “significantly increased”. In test [3] (setting [7]), the “expression level of CYC1” value was “significantly increase”, the “expression level of MyH3” value is listed as “significantly increase” and the “expression level of MyoG” value is listed as “significantly increase”.

For the compound `Cc1ccc(CNc2ncnc3ccc(-c4ccc(CO)o4)cc23)o1` [ML-167], in test [1], the “ability to facilitate myotube differentiation without the presence of ceramide” value is reported as “exhibited the ability to facilitate myotube differentiation” and the “ability to improve the myotube fusion in healthy muscle myoblasts” value was “ability to improve the myotube fusion”. The “effect on myotubes (phenotypic change)” value in test [2] (setting [5]) is on record as “promising effect in enhancing myotube cells”. For the same compound, in test [3] (setting [8]), the Cyc1 expression entry is given as “notable upregulation”, the MyH3 expression result is reported as “notable upregulation” and the MyoG expression result is on record as “notable upregulation”. Moreover, in test [3] (setting [6]), the Cyc1 expression result is “notable upregulation”, the MyH3 expression result is “notable upregulation” and the MyoG expression entry is on record as “notable upregulation”. In addition, in test [3] (setting [7]), the “expression level of CYC1” value was “significantly increase”, the “expression level of MyH3” value is recorded as “significantly increase” and the “expression level of MyoG” value was “significantly increase”.

In the case of `O=C1c2c(O)ccc(O)c2C(=O)c2c(NCCNCCO)ccc(NCCNCCO)c21` [Mitoxantrone], the “differentiation of myoblasts to myotubes” value in test [1] (setting [4]) was “less differentiated”.

Turning to `Cc1ccc([N+](=O)[O-])cc1S(=O)(=O)N(C)/N=C/c1cnc2ccc(Br)cn12` [PIK-75], the “differentiation of myoblasts to myotubes” value in test [1] (setting [4]) is “highly differentiated”. In test [2] (setting [5]), the “effect on myotubes (phenotypic change)” value is “Only treatment with withaferin-A improved the myotubes”.

Take `COC[C@H]1OC(=O)c2coc3c2[C@@]1(C)C1=C(C3=O)[C@@H]2CCC(=O)[C@@]2(C)C[C@H]1OC(C)=O` [Wortmannin]: the “differentiation of myoblasts to myotubes” value in test [1] is listed as “moderately differentiated”. Further, the “effect on myotubes (phenotypic change)” value in test [2] is recorded as “Only treatment with withaferin-A improved the myotubes”.

As for `CN(C)CCOC(c1ccc(Cl)cc1)c1ccccn1` (stereo not drawn) [carbinoxamine], the “effect on myotubes (phenotypic change)” value in test [2] (setting [5]) is listed as “promising effect in enhancing myotube cells”. In test [3] (setting [9]), the CYC1 expression result is reported as “large improvement”, the MyH3 expression entry is listed as “increase” and the MyoG expression entry is given as “increase”. Moreover, in test [3] (setting [7]), the “expression level of CYC1” value is recorded as “increase”, the “expression level of MyH3” value is given as “increase” and the “expression level of MyoG” value is recorded as “increase”.

For `CCCCCCCCCCCCC/C=C/[C@@H](O)[C@H](CO)NC(C)=O` [ceramide, N-acetyl-D-sphingosine], the myotube formation result in test [2] (40 µM ceramide alone, after 4 days of differentiation) is recorded as “less myotubes were formed”. The “MyH3 intensity compared to the control group” value in test [2] (mean brightness of MyH3 staining, Fig. 5B) was “significantly deceased; also recorded: significantly decreased”. Besides, in test [3] (setting [10]), the “expression level of MyH3” value is recorded as “decreased” and the “expression level of MyoG” value was “decreased”. Besides, the “expression level of ANXA2” value in test [3] (ceramide alone versus control) is on record as “increased”.
